The source of these data is PMC11719606, “Exploring the Inhibition of Toxoplasma gondii α-Carbonic Anhydrase by Sulfonamides: Insights into Potential Drug Targeting” (International Journal of Molecular Sciences, 2024).

Usually Ki stands for a dissociation constant, usually derived from enzyme kinetics or from competition with a known ligand. Low values mean higher affinity, high ones lower affinity.

The assay has as its target T1, Tg_CA (Toxoplasma gondii, UniProt S8F479).
T1 construct: gene TGME49_259950; alpha-CA domain, residues 487-830 of an 861-residue protein; E. coli BL21(DE3) codon-plus; about 47 kDa
T1 sequence (S8F479 487-830): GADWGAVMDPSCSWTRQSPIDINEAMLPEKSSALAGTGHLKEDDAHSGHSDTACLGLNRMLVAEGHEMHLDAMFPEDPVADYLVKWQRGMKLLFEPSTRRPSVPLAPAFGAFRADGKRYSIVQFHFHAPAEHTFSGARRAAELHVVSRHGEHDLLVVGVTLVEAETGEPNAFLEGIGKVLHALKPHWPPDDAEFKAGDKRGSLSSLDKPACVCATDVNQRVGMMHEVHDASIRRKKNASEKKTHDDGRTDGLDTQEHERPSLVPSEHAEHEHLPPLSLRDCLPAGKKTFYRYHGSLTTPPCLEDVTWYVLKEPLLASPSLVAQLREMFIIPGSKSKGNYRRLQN
The assay can be described thus: stopped-flow CO2 hydration, phenol red, Cheng-Prusoff. It counts as biochemical.
`NS(=O)(=O)c1ccc(CO)cc1` [compound 16] yielded a Ki of 91.6 nM.

`NS(=O)(=O)c1ccc(O)cc1` [compound 15]: the Ki is 76.4 nM.

With `NS(=O)(=O)c1ccc(C(=O)O)cc1` [compound 18], the Ki amounted to 85.3 nM.

Molecule `Nc1nnc(S(N)(=O)=O)s1` [compound 13] returned a Ki of 57.5 nM.

`CCN[C@H]1CN(CCCOC)S(=O)(=O)c2sc(S(N)(=O)=O)cc21` [BRZ, Brinzolamide] gave a Ki of 77.8 nM.

For the molecule `Nc1ccc(S(=O)(=O)Nc2ccc(S(N)(=O)=O)cc2)cc1` [compound 22], the Ki worked out at 91.2 nM.

The molecule `Nc1nccc(Nc2ccc(S(N)(=O)=O)cc2)n1` [compound 19] yielded a Ki of 72.5 nM.

For `NS(=O)(=O)c1ccc(CCO)cc1` [compound 17], the Ki was 263 nM.

Consider `NS(=O)(=O)c1ccc(S(=O)(=O)Nc2cccc3c(Cl)c[nH]c23)cc1` [IND, Indisulam], for which the Ki came out at 84 nM.

`NCc1ccc(S(N)(=O)=O)cc1` [compound 5] had a Ki of 739 nM.

On to `Nc1ccc(S(=O)(=O)Nc2nnc(S(N)(=O)=O)s2)cc1` [compound 20], for which the Ki is 17.8 nM.

Molecule `Cc1ccc(-c2cc(C(F)(F)F)nn2-c2ccc(S(N)(=O)=O)cc2)cc1` [CLX, Celecoxib] yielded a Ki of 508 nM.

Molecule `NS(=O)(=O)c1cc2c(cc1Cl)NCNS2(=O)=O` [HCT, Hydrochlorothiazide] registered a Ki of 839 nM.

In turn, `Nc1ccc(S(=O)(=O)NCCc2ccc(S(N)(=O)=O)cc2)cc1` [compound 24] had a Ki of 204 nM.

The molecule `Cc1ccc(S(N)(=O)=O)cc1` [compound 4] returned a Ki of 586 nM.

Regarding `Cn1nc(S(N)(=O)=O)sc1=N` [compound 14], the Ki is 61 nM.

As for `CC1(C)O[C@@H]2[C@@H](CO[C@@]3(COS(N)(=O)=O)OC(C)(C)O[C@@H]23)O1` [TPM, Topiramate], the affinity corresponds to a Ki of 720 nM.

The molecule `NS(=O)(=O)c1ccc(CCNS(=O)(=O)c2ccc([N+](=O)[O-])cc2CO)cc1` [compound 21] displayed a Ki of 94.7 nM.

Consider `Nc1ccc(S(=O)(=O)NCc2ccc(S(N)(=O)=O)cc2)cc1` [compound 23], for which the Ki worked out at 93.4 nM.

`NS(=O)(=O)c1nnc(NS(=O)(=O)c2ccccc2)s1` [BZA, Benzolamide] yielded a Ki of 62.1 nM.

The molecule `Nc1cc(C(F)(F)F)c(S(N)(=O)=O)cc1S(N)(=O)=O` [compound 11] showed a Ki of 65.1 nM.

On to `O=C1NS(=O)(=O)c2ccccc21` [SAC, Saccharin], for which affinity was put at a Ki of 8450 nM.

On to `Cc1onc(-c2ccccc2)c1-c1ccc(S(N)(=O)=O)cc1` [VLX, Valdecoxib], for which affinity was put at a Ki of 426 nM.

As for `Nc1cc(Cl)c(S(N)(=O)=O)cc1S(N)(=O)=O` [compound 12], the Ki came to 73.8 nM.

With `CC(=O)N=c1sc(S(N)(=O)=O)nn1C` [MZA, Methazolamide], the Ki was found to be 24.7 nM.

With `NS(=O)(=O)Cc1noc2ccccc12` [ZNS, Zonisamide], affinity was put at a Ki of 912 nM.

Regarding `NS(=O)(=O)c1cc(Cl)cc(Cl)c1O` [compound 10], the Ki amounted to 578 nM.

`NS(=O)(=O)c1cc(Cl)c(Cl)c(S(N)(=O)=O)c1` [DCP, Dichlorphenamide] displayed a Ki of 77.5 nM.
